{"source": "patent US9492423B2", "about": "“Formulations of histone deacetylase inhibitor in combination with bendamustine and uses thereof” (PHARMACYCLICS LLC, priority 2011, dated 2016)", "key": {"H929 (Multiple Myeloma)": {"tested_on": "H929 (Multiple Myeloma)", "assay": "Tumor growth inhibition study, H929 bearing female SCID mice", "assay_type": "in vivo", "settings": "PCI-24781 12 mg/kg BID IP 5 d/wk; bendamustine 5.0 mg/kg qd IP 2 d/wk; FIG. 7", "experimental": "Mice inoculated subcutaneously in the right hind flank with H929 MM cells at a density of 1×10^7 cells in a volume of 100 μL/mouse 4 groups of animals (n=8/group) received vehicle (BID, IP, 5 d/wk), PCI-24781 alone (12 mg/kg BID, IP, 5 d/wk), bendamustine alone 5.0 mg/kg (qd, IP, 2 d/wk Tu, Th) or the combination. Body weights and tumor measurements were collected a minimum of 2 times each week for all animals. Blood and tumor samples were collected at study termination for pharmacodynamic evaluations."}, "[1]": {"tested_on": "Neuroblastoma cell lines and patient-derived primary neuroblastoma cultures", "assay": "Neuroblastoma cell viability, calcein AM assay", "assay_type": "cell-based", "settings": "48 hours, viability by calcein AM", "experimental": "Neuroblastoma cell lines and patient-derived primary neuroblastoma cultures were treated with bortezomib, Compound 1 alone or a combination of both agents for 48 hours. Cells were also treated with HDAC inhibitors vorinostat, sodium butyrate, and valproic acid and viability was assessed by calcein AM assays. mRNA from treated cells was evaluated at 6 and 24 hours using U133+ mRNA expression arrays and Ingenuity analysis. Dichlorofluorescein (DCF) was used to measure reactive oxygen species (ROS). Cell viability assays were repeated in the presence of N-acetylcysteine (NAC). Western blot evaluated caspase-3 and PARP cleavage. Nude mice were injected with 10^7 SMS-KCNR cells subcutaneously and treated with daily doses of 0.5 mg/kg bortezomib, 12.5 mg/kg Compound 1, or a combination of the two agents. Tumors were measured and imaged twice per week."}, "[2]": {"assay": "Clinical PK of Compound 1 in solution form, single oral dose and 2-hour IV infusion doses", "settings": "human, in vivo, humans", "experimental": "In clinical trials involving humans with cancer, Compound 1 in solution form was administered at 2 mg/kg as a single oral dose and as multiple 2-hour IV infusion doses."}, "[3]": {"tested_on": "Jurkat (leukemia) and HCT-116 (colon tumor)", "assay": "In vitro dose scheduling studies, apoptosis by FACS (annexinV-FITC/PI)", "assay_type": "cell-based, human", "experimental": "Pharmacokinetic data (pk) data from human patients was used to model various dose regimens using human cell lines: Jurkat (leukemia) and HCT-116 (colon tumor). The human cell lines were treated with or without a HDAC inhibitor (e.g. Compound 1). Cells were cultured, treated according to different regimens and concentrations to model the corresponding dosing regimen (continuous low dose: 0.2 μM; intravenous (IV): 2 μM 3 hours+0.3 μM 4 hours; oral BID: 0.4 μM 4 hours×2, 4 hours apart; oral consecutive BID: 0.4 μM 8 hours; oral consecutive TID: 0.266 μM 12 hours), then washed out to mimic the human in vivo PK.\nCell viability was examined by an analysis of apoptosis using fluorescence activated cell sorting (FACS) after staining with annexinV-FITC and propidium iodide (PI). In brief, after treatment, 1×10^6 cells were washed with phosphate buffered saline (PBS) and then labeled with annexinV-FITC/PI in the binding buffer according to manufacturer's protocol. Fluorescent signals of FITC and PI were detected at 518 nm and 620 nm, respectively, on a Beckman Coulter FACS instrument (Fullerton, Calif.). The data were analyzed with Flow Jo software (Tree Star, Ashland, Oreg.)."}, "[4]": {"assay": "Phase 1 trial of oral capsule Compound 1, HCl: plasma pharmacokinetics", "assay_type": "in vivo", "settings": "human, 30 mg/m^2 dose of capsule formulation of Example 2, solid tumor cancer patients, mean±SE, read-out: AUC0-4h for plasma concentrations", "experimental": "(§1) This is a Phase 1 dose-escalation study of the safety, pharmacokinetics, and pharmacodynamics of Compound 1, HCl administered orally in patients with advanced cancer.\n(§2) In the Phase 1 dose escalation study, up to 7 cohorts will receive Compound 1, HCl orally at doses starting at 30 mg/m^2, approximately 4-6 hours apart, up to 90 mg/m^2, 2 or 3 times a day according to 3 different dosing schedules within 28 day cycle (5 days of dosing followed by 2 days of no dosing; 5 days of dosing followed by 9 days of no dosing; 7 days of dosing followed by 7 days of no dosing) until the maximum tolerated dose is reached.\nThe following pharmacokinetic information was determined for patients that received a […] dose of the capsule formulation of Example 2. Solid tumor cancer patients received a […] dose of the capsule formulation of Example 2. Blood samples that were collected for up to 24 hours post-dosing were analyzed for pharmacokinetic evaluations. Plasma was harvested by centrifugation and stored at approximately −70° C. until analysis. Concentrations of Compound 1 were determined in plasma using HPLC gradient system (Hewlett Packard model 1100) was configured with Sciex API 3000 and a reversed phase column (Phenomenex, Luna C18, 3.0 μm, 50×2 mm i.d.). The mobile phase gradient consisted of 0.2% formic acid in water (A) and 0.2% formic acid in methanol (B). […]"}, "RAD51 [5]": {"tested_on": "RAD51", "assay": "Jurkat cells, pretreatment and bendamustine-induced RAD51 upregulation", "assay_type": "cell-based, human", "settings": "Jurkat cells pre-treated one day with 0.2 uM Compound 1, then 20 uM bendamustine for 1 day, FIG. 9", "experimental": "Cells were pre-treated one day is advance with 0.2 uM HDAC inhibitor (i.e., Compound 1), then 20 uM bendamustine was added for 1 day."}, "RAD51 [6]": {"tested_on": "RAD51", "assay": "Western blot of DNA repair proteins in multiple myeloma cell lines", "assay_type": "cell-based", "settings": "FIG. 6A", "from_the_text": "RAD51 represents an essential component of homologous recombination (HR), one of the two major DNA double-strand break (DSB) repair pathways in cells; the second pathway, non-homologous end joining (NHEJ), represented here by two of its components Ku-70 and DNA-PKcs, is not affected by these treatments. […] As explained supra, the synergistic anti-multiple myeloma activity of the bendamustine-Compound 1 combination could be due to a reduction in RAD51 levels caused by the HDAC inhibitor (i.e., Compound 1)."}, "[7]": {"assay": "Phase 1 trial of oral capsule Compound 1, HCl: safety, tolerability, pharmacodynamics", "assay_type": "in vivo", "from_the_text": "as §1\nThis study seeks to determine the highest dose of Compound 1, HCl that can be taken without causing serious side effects in patients with advanced cancer. The study will look at safety of the study drug (Compound 1, HCl) and whether the treatment schedule is tolerated by patients.\nas §2\nPatients should satisfy the following criteria: At least 18 years of age; histologically confirmed, measurable solid tumor, non-Hodgkin's lymphoma, Hodgkin's disease, chronic lymphocytic leukemia, or multiple myeloma that has relapsed after standard therapy or for which no standard therapy exists; ability to swallow oral capsules without difficulty; estimated life expectancy>12 weeks; ECOG performance status≦2; Creatinine≦1.5×institutional upper limit of normal (ULN); Total bilirubin≦1.5×institutional ULN (unless elevated from documented Gilbert's syndrome); AST and ALT≦2.5×institutional ULN (≦5×institutional ULN in the presence of liver metastases); Platelet count≧100,000/μL; ANC≧1500/μL; Hgb≧9.0 g/dL; Patients with previously treated, stable, asymptomatic brain metastases who are not on corticosteroids are eligible; Willing and able to sign a written informed consent."}}}
{"compound": "Cn1c(CCCC(=O)O)nc2cc(N(CCCl)CCCl)ccc21", "note": "[bendamustine]", "values": [{"measurement": "tumor growth inhibition", "setting": "H929 (Multiple Myeloma)", "result": 79, "unit": "%"}]}
{"compound": "CC(C)C[C@H](NC(=O)[C@H](Cc1ccccc1)NC(=O)c1cnccn1)B(O)O", "note": "[bortezomib, reference compound]", "values": [{"measurement": "IC50", "setting": "[1]", "result": "< 0.05", "unit": "µM"}]}
{"compound": "CN(C)Cc1c(C(=O)NCCOc2ccc(C(=O)NO)cc2)oc2ccccc12", "note": "[Compound 1, N-hydroxy-4-{2-[3-(N,N-dimethylaminomethyl)benzofuran-2-ylcarbonylamino]ethoxy}-benzamide]", "values": [{"measurement": "IC50", "setting": "[1]", "result": "< 0.2", "unit": "µM"}, {"measurement": "bioavailability", "setting": "[2]; 2 mg/kg, administered as immediate release capsules or an oral solution", "result": "~27", "unit": "%"}, {"measurement": "bioavailability", "setting": "[2]; 2 mg/kg solution, from oral and IV AUC0-∞", "result": "~27", "unit": "%"}, {"measurement": "tumor growth inhibition", "setting": "H929 (Multiple Myeloma)", "result": 73, "unit": "%"}, {"measurement": "efficacy of modelled oral tid dosing versus bid dosing", "setting": "[3]; 0.266 μM 12 hours versus 0.4 μM 8 hours", "result": "better"}, {"measurement": "efficacy of modelled oral bid dosing given consecutively (4 hours apart) versus with a break in between", "setting": "[3]; 0.4 μM 8 hours versus 0.4 μM 4 hours×2", "result": "more efficacious"}, {"measurement": "efficacy (tumor cell death) of modelled dose schedule", "setting": "[3]; continuous exposure for at least 8 hours", "result": "good efficacy"}, {"measurement": "AUC(0-t)", "setting": "[4]", "result": "0.272 ± 0.051", "unit": "µM·h"}, {"measurement": "bendamustine-induced RAD51 upregulation", "setting": "RAD51 [5]", "result": "suppressed bendamustine-induced RAD51 upregulation"}, {"measurement": "NHEJ components Ku-70 and DNA-PKcs", "setting": "RAD51 [6]", "result": "not affected"}, {"measurement": "RAD51 expression", "setting": "RAD51 [6]", "result": "downregulation of RAD51"}, {"measurement": "average grade of thrombocytopenia, TID versus BID consecutive dosing", "setting": "[7]; daily exposure range of 0.63 to 2.15 μM·h", "result": "higher average grade of thrombocytopenia"}, {"measurement": "therapeutic effect", "setting": "[7]; immediate release capsule, 2 or 3 consecutive doses 4 to 6 hours apart on days of dosing", "result": "therapeutic effect of Compound 1 was achieved"}, {"measurement": "incidence of Grade 4 thrombocytopenia (platelet count <25,000 per mm^2)", "setting": "[7]; solid tumor and lymphoma patients, cycles of 7 days oral dosing followed by 7 days without dosing", "result": "limited incidence of Grade 4 thrombocytopenia"}]}
